Numbered stars: 1 amine (or outer) side, 2 acyl side, 3 side chain; on linkers, the order of the positions; unused ones are H or OH. Bridge positions count the residues as written; N and C are the ends. Square brackets hold non-standard residues; d marks the D form. Peptide text beside a SMILES is read from it. I, II: the chains in the order shown. Actinocin(9to1) = Cc1c2oc3c(C)ccc(C(=O)[*:1])c3nc-2c(C(=O)[*:2])c(N)c1=O; NMeV = CN[C@H](C(=O)O)C(C)C; Sar = CNCC(=O)O
Key:
[1] = test system: NSCLC, bilateral well-differentiated adenocarcinoma (site 1A); experiment: MiCK assay, drug-induced apoptosis, Table 3 tumor B1; format: cell-based, human; settings: Table 3 tumor B1: NSCLC, bilateral well-differentiated adenocarcinoma (site 1A); 48 hours with drug
From the text: (§1) Data were obtained optically using Mie light-scattering.
(§2) Do a test well. […] Look at the well under the inverted microscope. […] Repeat until optimal cell concentration is found. Plate the cells into the wells.

[2] = test system: NSCLC, multi-focal, recurrent adenocarcinoma (site A); experiment: MiCK assay, drug-induced apoptosis, Table 3 tumor C1; format: cell-based, human; settings: Table 3 tumor C1: NSCLC, multi-focal, recurrent adenocarcinoma (site A); 48 hours with drug
From the text: as §1, §2

[3] = test system: NSCLC, bilateral well-differentiated adenocarcinoma (site 1B); experiment: MiCK assay, drug-induced apoptosis, Table 3 tumor B2; format: cell-based, human; settings: Table 3 tumor B2: NSCLC, bilateral well-differentiated adenocarcinoma (site 1B); 48 hours with drug
From the text: as §1, §2

[4] = test system: Pancreatic islet cell cancer (lymph node); experiment: MiCK assay, drug-induced apoptosis, Table 4 tumor A1; settings: Table 4 tumor A1: Pancreatic islet cell cancer (lymph node); 48 hours with drug
Experimental: (§3) After overnight incubation, chemotherapy drugs were added to the wells of the 96-well plate in 5 μL aliquots or to the wells of a 384-well plate in 2.5 μL aliquots using an automated pipettor. The number of drugs or drug combinations and the number of concentrations tested depended on the number of viable malignant cells that were isolated from the tumor specimen. The drug concentrations, determined by molarity, were those indicated by the manufacturer as the desired blood level concentration plus or minus one serial dilution if enough cells were available.
(§4) Following drug addition, the plate was incubated for 30 min. at 37° C. in a 5% carbon dioxide humidified atmosphere incubator. Each well was then overlayed with sterile mineral oil, and the plate was placed into the incubator chamber of a microplate spectrophotometric reader. The optical density at 600 nanometers was read and recorded every 5 minutes over a period of 48 hours.
(§5) Patients: Three patients were included in this study. Two tumor samples from different tumor sites were collected from each patient. Both samples from each patient were collected on the same day.

[5] = test system: Lung adenocarcinoma (pleural effusion); experiment: MiCK assay, drug-induced apoptosis, Table 4 tumor B1; format: cell-based, human; settings: Table 4 tumor B1: Lung adenocarcinoma (pleural effusion); 48 hours with drug
From the text: as §1
Patients: Three patients were included in this study. […] Patient A was diagnosed with pancreatic islet cell cancer; sample 1 was collected from lymph node and sample 2 was collected from the primary tumor. Patient B was diagnosed with lung cancer NSCLC adenocarcinoma; sample 1 was collected from pleural effusion and sample 2 was collected from solid tumor. […] Ages of the patients ranged from 51-79 years old with an average age of 65 years. One patient was […] and two were female.

[6] = test system: Lung small cell carcinoma (site A); experiment: MiCK assay, drug-induced apoptosis, Table 4 tumor C1; settings: Table 4 tumor C1: Lung small cell carcinoma (site A); 48 hours with drug
Experimental: as §3, §4, §5

[7] = test system: NSCLC, multi-focal, recurrent adenocarcinoma (lymph node); experiment: MiCK assay, drug-induced apoptosis, Table 3 tumor D2; format: cell-based, human; settings: Table 3 tumor D2: NSCLC, multi-focal, recurrent adenocarcinoma (lymph node); 48 hours with drug
From the text: as §1, §2

[8] = test system: Probable mesothelioma (pleural effusion); experiment: MiCK assay, drug-induced apoptosis, Table 3 tumor A2; format: cell-based, human; settings: Table 3 tumor A2: Probable mesothelioma (pleural effusion); 48 hours with drug
Experimental: as §1
When the optimal cell concentration is reached, put the cells in the plate and incubate overnight in the incubating chamber of the incubator (37° C.).

[9] = test system: NSCLC, multi-focal adenocarcinoma (site A); experiment: MiCK assay, drug-induced apoptosis, Table 3 tumor E1; format: cell-based, human; settings: Table 3 tumor E1: NSCLC, multi-focal adenocarcinoma (site A); 48 hours with drug
From the text: as §1, §2

[10] = test system: NSCLC, multi-focal, recurrent adenocarcinoma (right lung); experiment: MiCK assay, drug-induced apoptosis, Table 3 tumor D1; format: cell-based, human; settings: Table 3 tumor D1: NSCLC, multi-focal, recurrent adenocarcinoma (right lung); 48 hours with drug
From the text: as §1, §2

[11] = test system: Lung adenocarcinoma (site B); experiment: MiCK assay, drug-induced apoptosis, Table 4 tumor C2; settings: Table 4 tumor C2: Lung adenocarcinoma (site B); 48 hours with drug
Experimental: as §3
(§6) Following drug addition, the plate was incubated for 30 min. at 37° C. in a 5% carbon dioxide humidified atmosphere incubator. Each well was then overlayed with sterile mineral oil, and the plate was placed into the incubator chamber of a microplate spectrophotometric reader. The optical density at 600 nanometers was read and recorded every 5 minutes over a period of 48 hours. Optical density increases, which correlates with apoptosis, were converted to kinetic units (KU) of apoptosis by a proprietary software ProApo with a formula described in the Kravtsov reference incorporated by reference (i.e. Kravtsov V. et al. “Use of the Microculture Kinetic Assay of apoptosis to determine chemosensitivities of leukemias.” Blood 1998; 92:968-980).
(§7) Purified tumor cells were cultured for 48 hours with individual drugs, and drug-induced apoptosis was measured using the MiCK assay as described in Example 1. Data were obtained optically using Mie light-scattering.

[12] = test system: Pancreatic islet cell cancer (primary tumor); experiment: MiCK assay, drug-induced apoptosis, Table 4 tumor A2; settings: 48 hours with drug
Experimental: as §3, §6, §7

Molecule | kinetic units (KU) of apoptosis [1] [KU] | kinetic units (KU) of apoptosis [3] [KU] | kinetic units (KU) of apoptosis [4] [KU] | kinetic units (KU) of apoptosis [6] [KU] | kinetic units (KU) of apoptosis [8] [KU] | further results
O=P1(NCCCl)OCCCN1CCCl (stereo not shown) [4HI (Ifosfamide), Ifosfamide] | 2.70 | 0.70 | 3.01 | 1.50 | 3.40 | kinetic units (KU) of apoptosis [2]: 0.50 KU; kinetic units (KU) of apoptosis [5]: 2.40 KU; kinetic units (KU) of apoptosis [7]: 1.20 KU; kinetic units (KU) of apoptosis [9]: 0.10 KU
O=c1[nH]cc(F)c(=O)[nH]1 [5FU, 5-Fluorouracil] |  |  | 0.42 |  |  | 
Nc1nc2[nH]cc(CCc3ccc(C(=O)N[C@@H](CCC(=O)O)C(=O)O)cc3)c2c(=O)[nH]1 [Alimta, Pemetrexed] | 1.40 | 1.60 | 0.22 | 1.40 | 1.20 | kinetic units (KU) of apoptosis [2]: 0.80 KU; kinetic units (KU) of apoptosis [10]: 0.70 KU; kinetic units (KU) of apoptosis [7]: 0.60 KU; kinetic units (KU) of apoptosis [11]: 0.70 KU
Cn1c(CCCC(=O)O)nc2cc(N(CCCl)CCCl)ccc21 [Bendamustine] |  |  | 1.39 |  |  | 
O=NN(CCCl)C(=O)NC1CCCCC1 [CCNU] |  |  | 1.00 | 0.90 |  | 
O=NN(CCCl)C(=O)NCCCl [Carmustine] |  |  | 0.82 | 3.00 |  | kinetic units (KU) of apoptosis [5]: 1.20 KU; kinetic units (KU) of apoptosis [11]: 0.50 KU
Nc1nc(Cl)nc2c1ncn2[C@H]1C[C@H](O)[C@@H](CO)O1 [Cladribine] |  |  | 0.61 |  |  | 
CN(C)/N=N/c1[nH]cnc1C(N)=O [Dacarbazine] |  |  | 1.31 |  |  | kinetic units (KU) of apoptosis [12]: 0.00 KU
Cc1c2oc3c(C)ccc(C(=O)N[C@@H]4C(=O)N[C@H](C(C)C)C(=O)N5CCC[C@H]5C(=O)N(C)CC(=O)N(C)[C@@H](C(C)C)C(=O)O[C@@H]4C)c3nc-2c(C(=O)N[C@@H]2C(=O)N[C@H](C(C)C)C(=O)N3CCC[C@H]3C(=O)N(C)CC(=O)N(C)[C@@H](C(C)C)C(=O)O[C@@H]2C)c(N)c1=O [Dactinomycin] (I: T[dV]P[Sar][NMeV] / II: T[dV]P[Sar][NMeV]; ester I:1-I:C, II:1-II:C; linker I:N-II:N via Actinocin(9to1)) | 1.20 | 0.90 |  | 7.70 | 4.70 | kinetic units (KU) of apoptosis [5]: 2.70 KU; kinetic units (KU) of apoptosis [10]: 0.90 KU; kinetic units (KU) of apoptosis [11]: 3.00 KU
COc1cccc2c1C(=O)c1c(O)c3c(c(O)c1C2=O)C[C@@](O)(C(C)=O)C[C@@H]3O[C@H]1C[C@H](N)[C@H](O)[C@H](C)O1 [Daunorubicin] | 1.40 | 1.40 |  | 8.10 | 3.80 | 
Cc1ccc(NC(=O)c2ccc(CN3CCN(C)CC3)cc2)cc1Nc1nccc(-c2cccnc2)n1 [Gleevec, imatinib] |  |  | 0.39 | 0.00 |  | 
CC(=O)[C@]1(O)Cc2c(O)c3c(c(O)c2[C@@H](O[C@H]2C[C@H](N)[C@H](O)[C@H](C)O2)C1)C(=O)c1ccccc1C3=O [Idarubicin] | 1.20 | 1.10 | 1.22 | 8.00 | 4.00 | kinetic units (KU) of apoptosis [2]: 0.90 KU; kinetic units (KU) of apoptosis [10]: 1.30 KU; kinetic units (KU) of apoptosis [11]: 3.00 KU
C/C(=C\c1csc(C)n1)[C@@H]1C[C@@H]2O[C@]2(C)CCC[C@H](C)[C@H](O)[C@@H](C)C(=O)C(C)(C)[C@@H](O)CC(=O)N1 [Ixabepilone] |  |  | 1.00 |  |  | 
N[C@@H](Cc1ccc(N(CCCl)CCCl)cc1)C(=O)O [Melphalan] |  |  | 0.57 |  |  | kinetic units (KU) of apoptosis [5]: 3.10 KU
CO[C@@]12[C@H](COC(N)=O)C3=C(C(=O)C(C)=C(N)C3=O)N1C[C@@H]1N[C@@H]12 [Mitomycin] | 1.20 | 1.00 | 1.04 | 6.30 | 1.00 | kinetic units (KU) of apoptosis [2]: 0.00 KU; kinetic units (KU) of apoptosis [5]: 0.90 KU; kinetic units (KU) of apoptosis [10]: 0.60 KU
O=C1c2c(O)ccc(O)c2C(=O)c2c(NCCNCCO)ccc(NCCNCCO)c21 [Mitoxantrone] |  |  | 0.82 | 1.60 |  | kinetic units (KU) of apoptosis [5]: 2.30 KU
CNC(=O)c1cc(Oc2ccc(NC(=O)Nc3ccc(Cl)c(C(F)(F)F)c3)cc2)ccn1 [Sorafenib] |  |  | 1.57 |  |  | 
CN(N=O)C(=O)N[C@@H](C=O)[C@@H](O)[C@H](O)[C@H](O)CO [Streptozocin] |  |  | 0.23 |  |  | kinetic units (KU) of apoptosis [12]: 0.0 KU
C#Cc1cccc(Nc2ncnc3cc(OCCOC)c(OCCOC)cc23)c1 [Tarceva] | 0.60 | 0.60 | 0.66 | 0.00 | 0.80 | kinetic units (KU) of apoptosis [10]: 0.5 KU; kinetic units (KU) of apoptosis [11]: 0.70 KU
Cn1nnc2c(C(N)=O)ncn2c1=O [Temozolomide] |  |  | 0.62 |  |  | kinetic units (KU) of apoptosis [12]: 1.22 KU
CC(C)C[C@H](NC(=O)[C@H](Cc1ccccc1)NC(=O)c1cnccn1)B(O)O [Velcade, Bortezomib] | 2.00 | 2.00 | 0.79 | 1.60 | 1.10 | kinetic units (KU) of apoptosis [2]: 0.20 KU; kinetic units (KU) of apoptosis [5]: 3.40 KU; kinetic units (KU) of apoptosis [10]: 0.60 KU; kinetic units (KU) of apoptosis [11]: 1.80 KU
Nc1ncn([C@@H]2O[C@H](CO)[C@@H](O)[C@H]2O)c(=O)n1 [Vidaza] |  |  | 1.00 |  |  | 
CC[C@]1(O)C[C@@H]2CN(CCc3c([nH]c4ccccc34)[C@@](C(=O)OC)(c3cc4c(cc3OC)N(C)[C@H]3[C@@](O)(C(=O)OC)[C@H](OC(C)=O)[C@]5(CC)C=CCN6CC[C@]43[C@@H]65)C2)C1 [Vinblastine] |  |  | 1.00 | 3.10 |  | kinetic units (KU) of apoptosis [11]: 2.00 KU
CCCCCOC(=O)Nc1nc(=O)n([C@@H]2O[C@H](C)[C@@H](O)[C@H]2O)cc1F [Xeloda] |  |  | 0.42 |  |  | kinetic units (KU) of apoptosis [12]: 0.90 KU
Bleomycin | 1.90 | 1.30 |  |  | 1.00 | 

From patent publication US20230184744A1, “INTERTUMORAL HOMOGENEITY DETERMINED BY MiCK ASSAY” (Pierian Biosciences, LLC, priority 2014, published 2023)
